Reference: patent US20190240225A1, “COMBINATION OF A BCL-2 INHIBITOR AND A MCL-1 INHIBITOR, USES AND PHARMACEUTICAL COMPOSITIONS THEREOF” (LES LABORATOIRES SERVIER, priority 2016, published 2019)
Where two headings read alike, the source gives them in different places.

Key:
Type in all cases: cell-based
Mino = assay: CellTiterGlo viability, Mantle Cell Lymphoma cell line; conditions: single agent, 2 days
Experimental: (§1) In addition, all media contained penicillin (100 IU/ml), streptomycin (100 μg/ml) and L-glutamine (2 mM). […] All cell lines were determined to be free of mycoplasma contamination in-house. Stock solutions of compounds were prepared at a concentration of 5 mM in DMSO and stored at −20° C. In order to analyse the activity of the compounds as single agents or in combination, cells were seeded and treated with seven or eight 3.16-fold serial dilutions of each compound dispensed, either individually or in all possible permutations in a checkerboard fashion, directly into the cell assay plates. […] All the conditions were tested in triplicates. Luminescence was quantified on a multipurpose plate reader. […] All calculations were performed using Chalice™ Bioinformatics Software available in Horizon website. Single agent IC50s were calculated using standard four-parametric curve fitting.

Jeko = assay: as above; conditions: single agent, 2 days
Experimental: as §1

JVM-2 = assay: as above; conditions: single agent, 2 days
Experimental: as §1

Z-138 = assay: as above; conditions: single agent, 2 days
Experimental: as §1

REC-1 = assay: as above; conditions: single agent, 2 days
Experimental: as §1

SU-DHL-10 = assay: CellTiterGlo viability, DLBCL cell line; conditions: single agent, 2 days; for IC50: read-out: Abs IC50
Experimental: (§6) In addition, all media contained penicillin (100 IU/ml), streptomycin (100 μg/ml) and L-glutamine (2 mM). Unless otherwise mentioned, culture media and supplements were from Amimed/Bioconcept (Allschwil, Switzerland).
(§7) Cell lines were cultured at 37° C. in a humidified atmosphere containing 5% CO2 and expanded in T-75 flasks. In all cases cells were thawed from frozen stocks, expanded through ≥1 passage using appropriate dilutions, counted and assessed for viability using a CASY cell counter (Omni Life Science, Bremen, Germany) prior to plating 25 ul/well at the densities indicated in Table 1 into 384-well plates (Corning). All cell lines were determined to be free of mycoplasma contamination by PCR assay performed at Idexx Radii (Columbia, Mo., USA) and misidentification ruled out by assessment of a panel of 48 Small Nucleotide Polymorphisms (SNPs) at Asuragen (Austin, Tex., USA) or in-house.
(§8) Stock solutions of compounds were prepared at a concentration of 10 mM in DMSO (Sigma) and stored at −20° C. Where necessary to afford a full dose-response curve, the stock solutions were pre-diluted in DMSO to 1′000-fold the desired start concentration (see Table 2). On the day after cell seeding, eight 2.5-fold serial dilutions of each compound were dispensed, either individually or in all possible permutations in a checkerboard fashion, directly into the cell assay plates using a non-contact 300D Digital Dispenser (ILCAN, Mannedorf, Switzerland) as outlined in FIG. 4. The final concentration of DMSO was 0.2% in all wells.
(§9) Effects of the single agents as well as their checkerboard combinations on cell viability were assessed after 2 days of incubation at 37° C./5% CO2 by quantification of cellular ATP levels using CellTiterGlo (Promega, Madison, Wis., USA) at 25 μL reagent/well and n=2 replicate plates per condition. Luminescence was quantified on a M1000 multipurpose platereader (ILCAN, Mannedorf, Switzerland). The number/viability of cells at time of compound addition was likewise assessed and used to assess the degree of the population doubling time of a particular cell line.
(§10) Single agent IC50s were calculated using standard four-parametric curve fitting. […] IC50 are defined as the compound concentration at which the CTG signal is reduced to 50% of that measured for the vehicle (DMSO) control.

NALM-6 = assay: CellTiterGlo viability, B-ALL cell line; conditions: for IC50: NALM-6, B-ALL, single agent, 72 h; for growth inhibition: NALM-6 cells, fourth lowest concentration tested (FIG. 11, top left panel)
Experimental: In addition, all media contained penicillin (100 IU/ml), streptomycin (100 μg/ml) and L-glutamine (2 mM). […] All cell lines were determined to be free of mycoplasma contamination in-house. Stock solutions of compounds were prepared at a concentration of 5 mM in DMSO and stored at −20° C. In order to analyse the activity of the compounds as single agents, cells were seeded and treated with nine 2-fold serial dilutions of each compound dispensed individually directly into the cell assay plates. […] All the conditions were tested in triplicates. Luminescence was quantified on a multipurpose plate reader. Single agent IC50s were calculated using standard four-parametric curve fitting. […] In order to analyse the activity of the compounds in combination, cells were seeded and treated with seven or eight 3.16-fold serial dilutions of each compound dispensed, either individually or in all possible permutations in a checkerboard fashion, directly into the cell assay plates as indicated in FIG. 1. […] For B-ALL cell lines, two independent experiments, each one performed in duplicates, were performed. For T-ALL cell lines, one experiment performed in triplicate was performed. Luminescence was quantified on a multipurpose plate reader. […] All calculations were performed using Chalice TM Bioinformatics Software available in Horizon website.

OCI-LY-19 = assay: CellTiterGlo viability, DLBCL cell line; conditions: single agent, 2 days; for IC50: read-out: Abs IC50
Experimental: as §6
Cell lines were cultured at 37° C. in a humidified atmosphere containing 5% CO2 and expanded in T-75 flasks. In all cases cells were thawed from frozen stocks, expanded through ≥1 passage using appropriate dilutions, counted and assessed for viability using a CASY cell counter (Omni Life Science, Bremen, Germany) prior to plating 25 ul/well at the densities indicated in Table 1 into 384-well plates (Corning).
as §8, §9, §10

SU-DHL-8 = assay: CellTiterGlo viability, DLBCL cell line; conditions: single agent, 2 days; for IC50: read-out: Abs IC50
Experimental: as §6, §7, §8, §9, §10

SU-DHL-5 = assay: CellTiterGlo viability, DLBCL cell line; conditions: single agent, 2 days; for IC50: read-out: Abs IC50
Experimental: as §6, §7, §8, §9, §10

J45.01 = assay: CellTiterGlo viability, T-ALL cell line; conditions: single agent, 48 h
Experimental: (§2) In addition, all media contained penicillin (100 IU/ml), streptomycin (100 μg/ml) and L-glutamine (2 mM). Cell lines were cultured at 37° C. in a humidified atmosphere containing 5% CO2 and expanded in T-150 flasks. In all cases cells were thawed from frozen stocks, expanded through ≥1 passage using appropriate dilutions, counted and assessed for viability using a CASY cell counter prior to plating 150 ul/well at the densities indicated in Table 9 into 96-well plates. All cell lines were determined to be free of mycoplasma contamination in-house.
(§3) Stock solutions of compounds were prepared at a concentration of 5 mM in DMSO and stored at −20° C. In order to analyse the activity of the compounds as single agents, cells were seeded and treated with nine 2-fold serial dilutions of each compound dispensed individually directly into the cell assay plates. […] All the conditions were tested in triplicates. Luminescence was quantified on a multipurpose plate reader. Single agent IC50s were calculated using standard four-parametric curve fitting. IC50 is defined as the compound concentration at which the CTG signal is reduced to 50% of that measured for the vehicle (DMSO) control.
(§4) In order to analyse the activity of the compounds in combination, cells were seeded and treated with seven or eight 3.16-fold serial dilutions of each compound dispensed, either individually or in all possible permutations in a checkerboard fashion, directly into the cell assay plates as indicated in FIG. 1. […] For B-ALL cell lines, two independent experiments, each one performed in duplicates, were performed. For T-ALL cell lines, one experiment performed in triplicate was performed. Luminescence was quantified on a multipurpose plate reader.
(§5) Potential synergistic interactions between compound combinations were assessed using the Excess Inhibition 2D matrix according to the Loewe additivity model and are reported as Synergy Score (Lehar et al, Nat Biotechnol. 2009 July; 27(7): 659-666). All calculations were performed using Chalice TM Bioinformatics Software available in Horizon website. The doubling time indicated in Table 9 is the mean of the doubling time obtained in the different passages (in T-150 flasks) performed from the thawing of the cells to their seeding in the 96-well plates.

Loucy = assay: CellTiterGlo viability, T-ALL cell line; conditions: single agent, 48 h
Experimental: as §2, §3, §4, §5

CCRF-CEM = assay: CellTiterGlo viability, T-ALL cell line; conditions: single agent, 48 h
Experimental: as §2, §3, §4, §5

J.RT3 T3.5 = assay: CellTiterGlo viability, T-ALL cell line; conditions: single agent, 48 h
Experimental: as §2, §3, §4, §5

Structure (SMILES)	Max Inh (Mino) [%]	Max Inh (Jeko) [%]	Max Inh (JVM-2) [%]	Max Inh (Z-138) [%]	Max Inh (REC-1) [%]	Max Inh (SU-DHL-10) [%]	growth inhibition (NALM-6) [%]	Max Inh (OCI-LY-19) [%]	Max Inh (SU-DHL-8) [%]	Max Inh (SU-DHL-5) [%]	IC50 (J45.01) [nM]	IC50 (Loucy) [nM]	also measured
Cl.O=C(c1cc(-c2cc3c(cc2C(=O)N2Cc4ccccc4C[C@H]2CN2CCOCC2)OCO3)n2c1CCCC2)N(c1ccccc1)c1ccc(O)cc1 [Compound 1, HCl, N-(4-hydroxyphenyl)-3-{6-[((3S)-3-(4-morpholinylmethyl)-3,4-dihydro-2(1H)-isoquinolinyl)carbonyl]-1,3-benzodioxol-5-yl}-N-phenyl-5,6,7,8-tetrahydro-1-indolizine carboxamide hydrochloride]	91.0	35.0	38.0	25.0	78.0	43.9	8	100.1	28.7	49.6	9000	231	IC50 (Mino; Homo sapiens, 48 h): 91 nM; IC50 (Jeko; 48 h): > 5000 nM; IC50 (JVM-2; Homo sapiens, 48 h): > 5000 nM; IC50 (Z-138; Homo sapiens, 48 h): > 5000 nM; IC50 (REC-1; Homo sapiens, Rec1, 48 h): 703 nM; IC50 (SU-DHL-10; Homo sapiens, SU-DHL10, 48 h): ≥ 10000 nM; IC50 (NALM-6; Homo sapiens): 3630 nM; IC50 (OCI-LY-19; Homo sapiens, OCI-LY19, 48 h): 89.5 nM; IC50 (SU-DHL-8; Homo sapiens, 48 h): ≥ 10000 nM; IC50 (SU-DHL-5; Homo sapiens, 48 h): ≥ 10000 nM; IC50 (CCRF-CEM; Homo sapiens): 7500 nM; IC50 (J.RT3 T3.5; Homo sapiens): 10000 nM
COc1ccccc1-c1nccc(COc2ccccc2C[C@@H](Oc2ncnc3sc(-c4ccc(F)cc4)c(-c4ccc(OCCN5CCN(C)CC5)c(Cl)c4C)c23)C(=O)O)n1 [Compound 3, (2R)-2-{[(5Sa)-5-{3-chloro-2-methyl-4-[2-(4-methylpiperazin-1-yl)ethoxy]phenyl}-6-(4-fluorophenyl)thieno[2,3-d]pyrimidin-4-yl]oxy}-3-(2-{[2-(2-methoxyphenyl)pyrimidin-4-yl]methoxy}phenyl)propanoic acid]	100.0	100.0	19.0	96.0	99.0	98.3	6	98.5	95.6	98.2	29	64	IC50 (Mino): 8 nM; IC50 (Jeko): 23 nM; IC50 (JVM-2): > 2000 nM; IC50 (Z-138): 448 nM; IC50 (REC-1): 77 nM; IC50 (SU-DHL-10): 3.84 nM; IC50 (NALM-6): 120 nM; IC50 (OCI-LY-19): 60.4 nM; IC50 (SU-DHL-8): 305 nM; IC50 (SU-DHL-5): 0.94 nM; IC50 (CCRF-CEM): 47 nM; IC50 (J.RT3 T3.5): 63 nM
